{
  "source": "the NIST ThermoML archive (doi:10.1021/acs.jced.8b00492)",
  "key": {"[1]": {"conditions": "for surface tension liquid-gas: Ring tensiometer; for viscosity: 100 kPa, Liquid, Capillary tube (Ostwald / Ubbelohde) method"}, "[2]": {"experiment": "mn = molality of the nth substance listed, in mol/kg", "conditions": "m2 = 0; for surface tension liquid-gas: Ring tensiometer; for viscosity / mass density / speed of sound: 100 kPa, Liquid; for viscosity: Capillary tube (Ostwald / Ubbelohde) method; for mass density: Vibrating tube method; for speed of sound: Frequency=3 MHz, Single path-length method"}},
  "note": "Numbers after ± are expanded uncertainties.",
  "data": [
    {"smiles": "O", "note": "[water]", "values": [
      {"measurement": "surface tension liquid-gas", "setting": "[1]; 293.15 K", "value": "72.6 ± 0.9", "unit": "mN/m"},
      {"measurement": "viscosity", "setting": "[1]; 293.15 K", "value": "0.993 ± 0.05", "unit": "mPa·s"},
      {"measurement": "surface tension liquid-gas", "setting": "[1]; 303.15 K", "value": "71.1 ± 0.9", "unit": "mN/m"},
      {"measurement": "viscosity", "setting": "[1]; 303.15 K", "value": "0.802 ± 0.05", "unit": "mPa·s"},
      {"measurement": "surface tension liquid-gas", "setting": "[1]; 313.15 K", "value": "69.2 ± 0.9", "unit": "mN/m"},
      {"measurement": "viscosity", "setting": "[1]; 313.15 K", "value": "0.661 ± 0.05", "unit": "mPa·s"},
      {"measurement": "surface tension liquid-gas", "setting": "[1]; 323.15 K", "value": "67.7 ± 0.9", "unit": "mN/m"},
      {"measurement": "viscosity", "setting": "[1]; 323.15 K", "value": "0.555 ± 0.05", "unit": "mPa·s"}
    ]},
    {"smiles": "O", "note": "[water] + C1N2CN3CN1CN(C2)C3", "values": [
      {"measurement": "surface tension liquid-gas", "setting": "[2]; 293.15 K", "value": "72.6 ± 0.9", "unit": "mN/m"},
      {"measurement": "viscosity", "setting": "[2]; 293.15 K", "value": "0.993 ± 0.05", "unit": "mPa·s"},
      {"measurement": "surface tension liquid-gas", "setting": "[2]; 303.15 K", "value": "71.1 ± 0.9", "unit": "mN/m"},
      {"measurement": "viscosity", "setting": "[2]; 303.15 K", "value": "0.802 ± 0.05", "unit": "mPa·s"},
      {"measurement": "mass density", "setting": "[2]; 303.15 K", "value": "995.9 ± 2", "unit": "kg/m3"},
      {"measurement": "surface tension liquid-gas", "setting": "[2]; 313.15 K", "value": "69.2 ± 0.9", "unit": "mN/m"},
      {"measurement": "viscosity", "setting": "[2]; 313.15 K", "value": "0.661 ± 0.05", "unit": "mPa·s"},
      {"measurement": "speed of sound", "setting": "[2]; 313.15 K", "value": "1529.1 ± 0.7", "unit": "m/s"},
      {"measurement": "mass density", "setting": "[2]; 313.15 K", "value": "992.3 ± 2", "unit": "kg/m3"},
      {"measurement": "surface tension liquid-gas", "setting": "[2]; 323.15 K", "value": "67.7 ± 0.9", "unit": "mN/m"},
      {"measurement": "viscosity", "setting": "[2]; 323.15 K", "value": "0.555 ± 0.05", "unit": "mPa·s"},
      {"measurement": "speed of sound", "setting": "[2]; 323.15 K", "value": "1541.5 ± 0.7", "unit": "m/s"}
    ]}
  ]
}
